Results on 11 compounds are retold here after US20240228487A1, “FUSED HETEROCYCLIC COMPOUND AND APPLICATION THEREOF, PHARMACEUTICAL COMPOSITIONS CONTAINING SAME AND APPLICATION THEREOF” (ZHEJIANG UNIVERSITY, priority 2021, published 2024).

The subject of test [1] is C57BL/6 mice, transient middle cerebral artery occlusion (tMCAO). The experiment in a line: mouse tMCAO cerebral stroke model (Embodiment 69). It counts as in vivo. Particulars: 3 mg/kg tail vein injection 3 h after reperfusion; for area of cerebral infarction caused by tMCAO: TTC staining 24 h after ischemia-reperfusion; for neuromotor dysfunction scores caused by tMCAO: scored 24 h after ischemia-reperfusion. From the text:
After isoflurane inhalation gas anesthesia of 22-25 g male C57BL/6 mice, the fiber-optic probes of a laser Doppler flowmeter were fixed to the skull of the mice with glue for monitoring the cerebral blood flow of the middle cerebral artery (MCA) supplying cortex. The mice were fixed in the supine position, and the middle of the neck was dehaired and routinely sterilized with 75% alcohol. An approximately 1.5 cm incision was made in the middle of the neck, and the skin of the neck was incised, and the muscle and fascia were separated along the inner edge of the sternocleidomastoideole; the right carotid artery sheath was bluntly separated to expose the right common carotid artery (CCA), external carotid artery (ECA), and internal carotid artery (ICA); after the surgical area was exposed satisfactorily, the CCA and ICA were temporarily clipped with arterial clips, and a small incision was made at the proximal end of the ECA with microsurgical scissors, and a nylon monofilament suture was inserted from the small incision along the ECA, and gently pushed into the intracranial area in the direction of the ICA for about 11.5±0.5 mm, blocking the beginning of the middle cerebral artery. Only the animals whose blood flow values decreased to 20% of the basic value were selected according to the blood flow data monitored by the flowmeter. After 90 minutes of ischemia, the monofilament sutures were gently withdrawn out, the arterial stumps were tied tightly, the surgical wounds were inspected, the bleeding was thoroughly stopped, a small amount of penicillin powder was sprinkled locally to prevent infection, and the subcutaneous tissues and the skin were sutured layer by layer, thus completing the ischemia reperfusion injury model. A heating plate was used to maintain the body temperature of the animals during surgery. After completion of the surgery, the sutured mice were placed in a heat preservation and humidification box until the mice recovered activities. Animals in the sham-operated group were subjected to the same surgical procedure but without middle artery occlusion.
Clean-grade male C57BL/6 mice were randomly divided into five groups, namely, the sham-operated group, the group of the positive control drug Edaravone(3 mg/kg), and the 3 mg/kg dose group of compounds II-1, II-23 and III-1.
The mice were subjected to tail vein injections of Edaravone, II-1, II-23, and III-1 respectively 3 h after modeling and reperfusion; the sham-operated group was injected with an equal volume of saline, and II-1, II-23, III-1, and Edaravone were dissolved in 0.9% saline solution. Neurological function scores and TTC staining of mice were performed 24 h after ischemia-reperfusion, and the results are shown in FIGS. 6, 7 and 8.
The mice were decapitated 24 h after ischemia-reperfusion, the coronal planes of the brains were cut into brain slices of about 2 mm thickness uniformly. The brain slices were placed in 0.25% 2,3,5-triphenyltetrazolium chloride (TTC) solution, incubated at 37° C. Celsius for 30 minutes away from light, stained, and fixed in 4% paraformaldehyde neutral buffer (pH 7.4) overnight. The processed brain slices were photographed using a macro camera, and Image J image analysis software was used to calculate and count the cerebral infarct volume, and the measured results are shown in FIG. 7. The formula for calculating the percentage of infarct volume was (sum of the left uninfarcted area −sum of the right uninfarcted area)/sum of the left uninfarcted area×100%.
According to the five-level, four-point standard of score, the mortality and neuromotor dysfunction scores of each group of mice were performed, and the results are shown in FIG. 8. […]

For test [2] the test system is unchanged. The experiment in a line: mouse tMCAO ischemia/reperfusion injury model (Embodiment 68). It counts as in vivo. Particulars: 3 mg/kg tail vein injection 3 h after reperfusion. As for the experimental part: After isoflurane inhalation gas anesthesia of 22-25 g male C57BL/6 mice, the fiber-optic probes of the laser Doppler flowmeter were fixed to the animal's skull with glue for monitoring the cerebral blood flow of the middle cerebral artery (MCA) supplying cortex. […] Only animals whose blood flow values decreased to 20% of the basic value were selected according to the blood flow data monitored by the flowmeter. […]
The mice were decapitated 24 h after ischemia-reperfusion, the coronal planes of the brains were cut into brain slices of about 2 mm thickness uniformly, the brain slices were placed in 0.25% 2,3,5-triphenyltetrazolium chloride (TTC) solution, incubated at 37° C. […] The processed brain slices were photographed using a macro camera, and Image J image analysis software was used to calculate and count the cerebral infarct volume, and the measured results are shown in FIG. 4. […]

The target of a further test is T1, human TRPM2 channels (Homo sapiens, UniProt O94759).
T1 construct: expressed in transfected cells
The experiment in a line: whole cell patch clamp, inhibition of TRPM2 channel current. It counts as cell-based. The following applies: HEK293 cells stably expressing human TRPM2, 500 μM ADPR. The protocol:
The fused heterocyclic compound of the present invention has an inhibitory effect on the TRPM2 channel, and its pharmacological activity is measured using whole cell patch clamp technology, the corresponding steps are as follows: Incubating HEK293 cells stably expressing human TRPM2 channels in DMEM/F-12 medium containing 10% bovine serum, 50 units/mL of penicillin and […] of streptomycin under the condition of 5% CO2 and 37° C. The cells before testing are stored in the extracellular fluid (147 mM NaCl, 2 mM KCl, 1 mM MgCl2, 2 mM CaCl2, 10 mM HEPES, 13 mM glucose, pH 7.4). The electrode is filled with the electrode internal solution (147 mM NaCl, 0.05 mM EGTA, 1 mM MgCl2, 10 mM HEPES, 0.5 mM ADPR, pH=7.3), and the resistance is maintained at 3-5 M Ω. Administering ADPR into cells through electrodes, and detecting the ADPR concentration used to activate TRPM2 as 500 μM, when detecting a stable current, perfusing the corresponding concentration of fused heterocyclic compound II-1 into the extracellular fluid for at least 60 seconds. record the change in current magnitude using voltage ramp mode, changing the voltage from −100 mV to+100 mV within 500 ms, with a normal clamp voltage of 0 mV and a TRPM every 5 seconds; finally, replacing the extracellular fluid with a solution with pH=5.0 to block the TRPM2 current, the electrophysiological current test results obtained are shown in Table 1, and the electrophysiological current graph obtained is shown in FIG. 1. Similarly, administering corresponding concentrations of other fused heterocyclic compounds (II-2˜II-54, III-1˜III-11) into the extracellular fluid, taking electrophysiological tests using the same method, the results are shown in Table 1. The electrophysiological representative current graphs of some fused heterocyclic compounds (II-9, II-19, and II-36) inhibiting TRPM2 channel current are shown in FIG. 1.

T1 sequence (O94759 whole entry): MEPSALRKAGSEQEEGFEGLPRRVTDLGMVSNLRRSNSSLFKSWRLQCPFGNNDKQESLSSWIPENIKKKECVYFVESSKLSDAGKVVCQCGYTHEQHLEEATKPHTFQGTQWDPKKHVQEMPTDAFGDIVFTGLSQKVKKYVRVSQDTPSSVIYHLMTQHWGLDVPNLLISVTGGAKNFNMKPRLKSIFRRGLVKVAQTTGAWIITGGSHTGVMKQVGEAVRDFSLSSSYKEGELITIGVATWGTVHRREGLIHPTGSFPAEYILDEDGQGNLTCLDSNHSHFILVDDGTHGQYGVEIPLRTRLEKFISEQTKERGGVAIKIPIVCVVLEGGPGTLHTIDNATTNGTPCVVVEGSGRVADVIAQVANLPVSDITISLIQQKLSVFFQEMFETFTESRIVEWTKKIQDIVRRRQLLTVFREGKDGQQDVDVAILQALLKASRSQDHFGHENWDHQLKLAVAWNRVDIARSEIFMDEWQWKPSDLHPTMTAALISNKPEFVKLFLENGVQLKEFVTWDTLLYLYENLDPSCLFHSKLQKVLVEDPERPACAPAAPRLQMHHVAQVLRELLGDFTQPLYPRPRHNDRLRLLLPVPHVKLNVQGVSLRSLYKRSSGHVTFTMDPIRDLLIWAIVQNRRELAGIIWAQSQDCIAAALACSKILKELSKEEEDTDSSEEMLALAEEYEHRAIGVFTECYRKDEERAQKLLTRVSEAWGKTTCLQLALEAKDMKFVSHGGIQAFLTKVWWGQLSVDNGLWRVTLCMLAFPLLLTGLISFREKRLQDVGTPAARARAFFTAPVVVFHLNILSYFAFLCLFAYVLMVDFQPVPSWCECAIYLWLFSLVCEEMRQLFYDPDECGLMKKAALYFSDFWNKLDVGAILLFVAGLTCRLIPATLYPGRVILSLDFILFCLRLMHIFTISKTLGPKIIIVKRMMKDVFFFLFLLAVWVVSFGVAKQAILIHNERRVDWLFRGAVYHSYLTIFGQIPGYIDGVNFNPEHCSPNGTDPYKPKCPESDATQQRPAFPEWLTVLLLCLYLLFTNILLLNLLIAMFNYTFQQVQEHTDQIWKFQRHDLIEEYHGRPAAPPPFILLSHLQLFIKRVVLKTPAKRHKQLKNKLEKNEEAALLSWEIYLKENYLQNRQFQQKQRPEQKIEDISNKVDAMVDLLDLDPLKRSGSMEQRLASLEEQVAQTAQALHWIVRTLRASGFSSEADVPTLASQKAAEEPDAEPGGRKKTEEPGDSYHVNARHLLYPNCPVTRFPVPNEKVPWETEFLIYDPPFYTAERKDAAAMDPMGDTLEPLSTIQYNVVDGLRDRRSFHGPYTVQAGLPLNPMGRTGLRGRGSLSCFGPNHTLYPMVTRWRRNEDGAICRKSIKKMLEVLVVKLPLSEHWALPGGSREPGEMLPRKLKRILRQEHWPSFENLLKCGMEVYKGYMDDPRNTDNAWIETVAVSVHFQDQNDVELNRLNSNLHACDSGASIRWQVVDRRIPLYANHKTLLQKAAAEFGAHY

As for `CCOC(=O)c1cc(C(=O)c2ccccc2)n2cccc2c1` [II-1, 5-benzoimide 7-carboxylic acid ethyl ester], in test [1], the “area of cerebral infarction caused by tMCAO” value is “significantly reduced” and the “neuromotor dysfunction scores caused by tMCAO” value was “significantly reduced”. The “volume of cerebral infarction caused by tMCAO” value in test [2] (TTC staining 24 h after ischemia-reperfusion) is given as “significantly reduce”. In addition, the “scores of neuromotor dysfunction caused by tMCAO” value in test [2] (scored 24 h after ischemia-reperfusion) is given as “significantly reduce”. The IC50 (as a rule, the concentration needed to halve the response being measured) against human TRPM2 channels was 1 to 10 µM.

Regarding `COC(=O)c1cc(C(=O)c2ccccc2)n2ccnc2c1` [III-1, 5-benzimidazolo[1,2-a]pyridine-7-methyl carboxylate], in test [1], the “area of cerebral infarction caused by tMCAO” value is recorded as “significantly reduced” and the “neuromotor dysfunction scores caused by tMCAO” value is reported as “significantly reduced”. Moreover, the IC50 at human TRPM2 channels lay within 1 to 10 µM.

On to `COC(=O)c1cc(C(=O)c2ccc(C)cc2)n2ccnc2c1` [III-3, 5-(4-methylbenzoyl) imidazolo [1,2-a]pyridine-7-methyl carboxylate], for which, at human TRPM2 channels, the half-inhibitory concentration (IC50) fell in the range of 10 to 20 µM.

`CCOC(=O)c1cc(C(=O)c2ccccc2)n2ccnc2c1` [III-4, 5-benzimidazolo[1,2-a]pyridine-7-ethyl carboxylate] returned a half-maximal inhibitory concentration (IC50) at human TRPM2 channels of 10 to 20 µM.

Regarding `O=C(O)c1cc(C(=O)c2ccccc2)n2ccnc2c1` [III-5, 5-benzimide azo [1,2-a]pyridine-7-carboxylic acid], the IC50 against human TRPM2 channels was 10 to 20 µM.

Regarding `CN(C)C(=O)c1cc(C(=O)c2ccccc2)n2ccnc2c1` [III-6, 5-Benzoyl-N,N-dimethylimidazole[1,2-a]pyridine-7-formamide], the IC50 on human TRPM2 channels lay in the range of 10 to 20 µM.

Turning to `CCNC(=O)c1cc(C(=O)c2ccccc2)n2ccnc2c1` [III-7, 5-benzoyl-N-ethylimidazolo[1,2-a]pyridine-7-formamide], at human TRPM2 channels, the 50% inhibitory concentration (IC50) lay in the range of 1 to 10 µM.

In turn, `CCN(CC)C(=O)c1cc(C(=O)c2ccccc2)n2ccnc2c1` [III-8, 5-Benzoyl-N,N-diethylimidazole[1,2-a]pyridine-7-formamide] returned an IC50 against human TRPM2 channels of 10 to 20 µM.

As for `O=C(c1ccccc1)c1cc(C(=O)N2CCCC2)cc2nccn12` [III-9], the IC50 on human TRPM2 channels is 10 to 20 µM.

The compound `O=C(c1ccccc1)c1cc(C(=O)N2CCCCC2)cc2nccn12` [III-10, (5-benzimidazole[1,2-a]pyridine-7-yl) (piperidin-1-yl) ketone] returned an IC50 at human TRPM2 channels of 10 to 20 µM.

For `CCOC(=O)c1cc(C(O)c2ccccc2)n2ccnc2c1` (centres unmarked) [III-11, 5-(hydroxy (phenyl)methylimidazolo [1,2-a]pyridine-7-ethyl carboxylate], at human TRPM2 channels, the IC50 was in the range of 20 to 50 µM.
